In patent US20040102454A1, “Phenylahistin and the phenylahistin analogs, a new class of anti-tumor compounds” (priority 1998, published 2004):

Assays:
Assay in all cases: HCC panel assay, sulforhodamine B
Assay type in all cases: cell-based
ACHN = conditions: Renal, (−)-PLH content 24.1%
Experimental: (§1) The antitumor activity of PLH was evaluated by the Human Cancer Cell Line Panel (HCC panel) assay, see Yamori T., Jap. J Cancer Chemother., (1997), 24, 129-35. This HCC panel consists of 38 tumor cell lines including 7 lung cancer, 6 stomach, 6 colon, 5 ovary, 6 central nerve system, 5 breast, 2 kidney and 1 melanoma cell lines. Each tumor cell was seeded in 96-well tissue culture plates and incubated overnight. Various concentrations (5 doses; final 10^−4, 10^−5, 10^−6, 10^−7 and 10^−8 M) of PLH were added, and the cells were incubated for 48 hours. […] All mice were obtained from Japan SLC (Shizuoka, Japan), P388 leukemia cells were obtained from Dainippon Pharmaceuticals Inc. (Osaka, Japan), Lewis Lung Carcinoma from Riken Cell Bank (Tsukuba, Japan), and Colon 26 cells from the National Cancer Center, Japan (Tokyo, Japan).

DMS114 = conditions: DMS114, Lung, (−)-PLH content 24.1%
Experimental: as §1

HBC-4 = conditions: HBC-4, Breast, (−)-PLH content 24.1%
Experimental: as §1

HBC-5 = conditions: HBC-5, Breast, (−)-PLH content 24.1%
Experimental: as §1

HCT-116 = conditions: HCT-116, Colon, (−)-PLH content 24.1%
Experimental: as §1

HCT-15 = conditions: HCT-15, Colon, (−)-PLH content 24.1%
Experimental: as §1

HT-29 = conditions: HT-29, Colon, (−)-PLH content 24.1%
Experimental: as §1

LOX-IMVI = conditions: Melanoma, (−)-PLH content 24.1%
Experimental: as §1

MCF-7 = conditions: MCF-7, Breast, (−)-PLH content 24.1%
Experimental: as §1

MDA-MB-231 = conditions: MDA-MB-231, Breast, (−)-PLH content 24.1%
Experimental: as §1

MKN1 = conditions: MKN1, Stomach, (−)-PLH content 24.1%
Experimental: as §1

MKN74 = conditions: MKN74, Stomach, (−)-PLH content 24.1%
Experimental: as §1

MKN7 = conditions: MKN7, Stomach, (−)-PLH content 24.1%
Experimental: as §1

OVCAR-5 = conditions: OVCAR-5, Ovary, (−)-PLH content 24.1%
Experimental: as §1

SF-295 = conditions: SF-295, CNS, (−)-PLH content 24.1%
Experimental: as §1

SF-539 = conditions: SF-539, CNS, (−)-PLH content 24.1%
Experimental: as §1

SNB-75 = conditions: SNB-75, CNS, (−)-PLH content 24.1%
Experimental: as §1

St-4 = conditions: St-4, Stomach, (−)-PLH content 24.1%
Experimental: as §1

U251 = conditions: U251, CNS, (−)-PLH content 24.1%
Experimental: as §1

WiDr = conditions: Colon, (−)-PLH content 24.1%
Experimental: as §1

[1] = Homo sapiens, read-out: GL50 (the source's name)
[2] = Homo sapiens, read-out: LC50 (the source's name)

C=CC(C)(C)c1[nH]cnc1/C=C1\NC(=O)[C@H](Cc2ccccc2)NC1=O (racemic) [PLH, phenylahistin]
IC50 (ACHN; [1]): 28 µM
CC50 (ACHN; [2]): > 100 µM
TGI (ACHN): >100 µM
TGI (DMS114): 2.4 µM
IC50 (DMS114; Homo sapiens, DMS-114, read-out: GL50 (the source's name)): 0.33 µM
CC50 (DMS114; Homo sapiens, DMS-114, read-out: LC50 (the source's name)): > 100 µM
TGI (HBC-4): >100 µM
IC50 (HBC-4; Homo sapiens, HBC4, read-out: GL50 (the source's name)): 0.46 µM
CC50 (HBC-4; Homo sapiens, HBC4, read-out: LC50 (the source's name)): > 100 µM
TGI (HBC-5): >100 µM
IC50 (HBC-5; Homo sapiens, HBC5, read-out: GL50 (the source's name)): 0.6 µM
CC50 (HBC-5; Homo sapiens, HBC5, read-out: LC50 (the source's name)): > 100 µM
TGI (HCT-116): >100 µM
IC50 (HCT-116; [1]): 0.48 µM
CC50 (HCT-116; [2]): > 100 µM
TGI (HCT-15): >100 µM
IC50 (HCT-15; [1]): 0.49 µM
CC50 (HCT-15; [2]): > 100 µM
TGI (HT-29): >100 µM
IC50 (HT-29; [1]): 0.4 µM
CC50 (HT-29; [2]): > 100 µM
IC50 (LOX-IMVI; [1]): 1.3 µM
CC50 (LOX-IMVI; [2]): > 100 µM
TGI (LOX-IMVI): >100 µM
IC50 (MCF-7; Homo sapiens, MCF7, read-out: GL50 (the source's name)): 0.47 µM
CC50 (MCF-7; Homo sapiens, MCF7, read-out: LC50 (the source's name)): > 100 µM
TGI (MCF-7): >100 µM
IC50 (MDA-MB-231; [1]): 0.64 µM
CC50 (MDA-MB-231; [2]): > 100 µM
TGI (MDA-MB-231): 6 µM
IC50 (MKN1; Homo sapiens, MKN-1, read-out: GL50 (the source's name)): 0.4 µM
CC50 (MKN1; Homo sapiens, MKN-1, read-out: LC50 (the source's name)): > 100 µM
TGI (MKN1): 21 µM
IC50 (MKN74; Homo sapiens, MKN-74, read-out: GL50 (the source's name)): 0.48 µM
CC50 (MKN74; Homo sapiens, MKN-74, read-out: LC50 (the source's name)): > 100 µM
TGI (MKN74): >100 µM
IC50 (MKN7; Homo sapiens, MKN-7, read-out: GL50 (the source's name)): 0.39 µM
CC50 (MKN7; Homo sapiens, MKN-7, read-out: LC50 (the source's name)): > 100 µM
TGI (MKN7): >100 µM
IC50 (OVCAR-5; [1]): 1.2 µM
CC50 (OVCAR-5; [2]): > 100 µM
TGI (OVCAR-5): >100 µM
IC50 (SF-295; [1]): 0.32 µM
CC50 (SF-295; [2]): > 100 µM
TGI (SF-295): 2.4 µM
IC50 (SF-539; [1]): 0.23 µM
CC50 (SF-539; [2]): 11 µM
TGI (SF-539): 0.6 µM
IC50 (SNB-75; [1]): 0.37 µM
CC50 (SNB-75; [2]): > 100 µM
TGI (SNB-75): >100 µM
IC50 (St-4; [1]): 40 µM
CC50 (St-4; [2]): > 100 µM
TGI (St-4): >100 µM
IC50 (U251; Homo sapiens, U-251, read-out: GL50 (the source's name)): 0.44 µM
CC50 (U251; Homo sapiens, U-251, read-out: LC50 (the source's name)): > 100 µM
TGI (U251): 10 µM
TGI (WiDr): 0.79 µM
IC50 (WiDr; [1]): 0.27 µM
CC50 (WiDr; [2]): > 100 µM
